Assay results reported in patent US20220402935A1, “HETEROCYCLIC COMPOUND” (FIMECS, INC., priority 2019, published 2022).

target: T1, IRAK-M (Homo sapiens, UniProt Q9Y616); test: IRAK-M binding inhibitory activity (KINOMEscan active site-dependent competitive assay); parameters: purchased Eurofins Discover X; conditions: concentration of the test compound 1 μM; first symbol of cell; read-out: IRAK-M binding inhibition activity % Ctrl
T1 sequence (Q9Y616 1-596): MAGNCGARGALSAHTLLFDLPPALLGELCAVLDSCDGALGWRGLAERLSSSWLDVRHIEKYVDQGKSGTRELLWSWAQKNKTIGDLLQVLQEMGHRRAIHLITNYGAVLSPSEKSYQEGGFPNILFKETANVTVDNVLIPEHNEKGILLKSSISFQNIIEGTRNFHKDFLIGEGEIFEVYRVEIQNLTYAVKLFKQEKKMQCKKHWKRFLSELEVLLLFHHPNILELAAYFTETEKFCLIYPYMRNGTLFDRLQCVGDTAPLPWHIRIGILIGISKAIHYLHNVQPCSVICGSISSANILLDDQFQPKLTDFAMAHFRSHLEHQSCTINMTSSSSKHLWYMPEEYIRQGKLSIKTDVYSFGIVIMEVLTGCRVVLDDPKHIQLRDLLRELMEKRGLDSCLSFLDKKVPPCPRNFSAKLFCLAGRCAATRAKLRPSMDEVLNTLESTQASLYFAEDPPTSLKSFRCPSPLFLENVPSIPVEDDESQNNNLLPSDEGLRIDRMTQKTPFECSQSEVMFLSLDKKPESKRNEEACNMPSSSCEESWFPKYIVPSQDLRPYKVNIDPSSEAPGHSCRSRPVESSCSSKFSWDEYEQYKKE
Description: IRAK-M binding inhibitory activity was evaluated using active site-dependent competitive assay KINOMEscan® provided by Eurofins Discover X (Goldstein, D. M. et al. High-throughput kinase profiling as a platform for drug discovery. Nat. Rev. Drug Discovery. 7, 391-397 (2008)). IRAK-M binding inhibitory activity of the test compound was evaluated. […] The “% Ctrl” is calculated by the following formula.
(test compound signal−positive control compound signal)/(negative control compound signal−positive control compound signal)×100
Negative control compound=DMSO (100 Ctrl)
Positive control compound=control compound (0%×Ctrl)

Row | SMILES | remaining binding at 1 µM [%]
1 | COc1ccc(S(=O)(=O)N2CCC(Oc3ncnc4ccsc34)CC2)cn1 [Ref. example 60, 4-((1-((6-methoxypyridin-3-yl)sulfonyl)piperidin-4-yl)oxy)thieno[3,2-d]pyrimidine] | 25 to 50
2 | Cc1cnn(C)c1S(=O)(=O)N1CCC(Oc2ncnc3ccsc23)CC1 [Ref. example 61, 4-((1-((1,4-dimethyl-1H-pyrazol-5-yl)sulfonyl)piperidin-4-yl)oxy)thieno[3,2-d]pyrimidine] | ≥ 75
3 | CC(C)CS(=O)(=O)N1CCC(Oc2ncnc3ccsc23)CC1 [Ref. example 62, 4-((1-(isobutylsulfonyl)piperidin-4-yl)oxy)thieno[3,2-d]pyrimidine] | 25 to 50
4 | O=S(=O)(CCc1ccccc1)N1CCC(Oc2ncnc3ccsc23)CC1 [Ref. example 63, 4-((1-(phenethylsulfonyl)piperidin-4-yl)oxy)thieno[3,2-d]pyrimidine] | < 25
5 | O=S(=O)(c1cccc(Oc2ccccc2)c1)N1CCC(Oc2ncnc3ccsc23)CC1 [Ref. example 64, 4-((1-((3-phenoxyphenyl)sulfonyl)piperidin-4-yl)oxy)thieno[3,2-d]pyrimidine] | < 25
6 | CCOc1ccc(Nc2ncnc3ccsc23)cc1 [Ref. example 65, N-(4-ethoxyphenyl)thieno[3,2-d]pyrimidin-4-amine] | ≥ 75
7 | COc1ccc(Nc2nc(C)nc3cc(C)sc23)cc1OC [Ref. example 66, N-(3,4-dimethoxyphenyl)-2,6-dimethylthieno[3,2-d]pyrimidin-4-amine] | 50 to 75
8 | C#CCN1CCC(Oc2ccnc3ccsc23)CC1 [Ref. example 67, 7-((1-(prop-2-yn-1-yl)piperidin-4-yl)oxy)thieno[3,2-b]pyridine] | 25 to 50
9 | Cn1nc(O)cc1CN1CCC(Oc2ccnc3ccsc23)CC1 [Ref. example 68, 1-methyl-5-((4-(thieno[3,2-b]pyridin-7-yloxy)piperidin-1-yl)methyl)-1H-pyrazol-3-ol] | 25 to 50
10 | Cn1cc(CN2CCC(Oc3ccnc4ccsc34)CC2)cn1 [Ref. example 73, 7-((1-((1-methyl-1H-pyrazol-4-yl)methyl)piperidin-4-yl)oxy)thieno[3,2-b]pyridine] | ≥ 75
11 | Cc1nn(C)cc1CN1CCC(Oc2ccnc3ccsc23)CC1 [Ref. example 74, 7-((1-((1,3-dimethyl-1H-pyrazol-4-yl)methyl)piperidin-4-yl)oxy)thieno[3,2-b]pyridine] | 50 to 75
12 | Cc1nn(C)c(C)c1CN1CCC(Oc2ccnc3ccsc23)CC1 [Ref. example 75, 7-((1-((1,3,5-trimethyl-1H-pyrazol-4-yl)methyl)piperidin-4-yl)oxy)thieno[3,2-b]pyridine] | ≥ 75
13 | Cc1c(CN2CCC(Oc3ccnc4ccsc34)CC2)cnn1C [Ref. example 76, 7-((1-((1,5-dimethyl-1H-pyrazol-4-yl)methyl)piperidin-4-yl)oxy)thieno[3,2-b]pyridine] | 50 to 75
14 | Cn1nccc1CN1CCC(Oc2ccnc3ccsc23)CC1 [Ref. example 77, 7-((1-((1-methyl-1H-pyrazol-5-yl)methyl)piperidin-4-yl)oxy)thieno[3,2-b]pyridine] | 25 to 50
15 | Cc1noc(C)c1CN1CCC(Oc2ccnc3ccsc23)CC1 [Ref. example 78, 3,5-dimethyl-4-((4-(thieno[3,2-b]pyridin-7-yloxy)piperidin-1-yl)methyl)isoxazole] | 25 to 50
16 | c1csc(CN2CCC(Oc3ccnc4ccsc34)CC2)n1 [Ref. example 79, 7-((1-(thiazol-2-ylmethyl)piperidin-4-yl)oxy)thieno[3,2-b]pyridine] | 25 to 50
17 | Cc1ncc(CN2CCC(Oc3ccnc4ccsc34)CC2)s1 [Ref. example 80, 7-((1-((2-methylthiazol-5-yl)methyl)piperidin-4-yl)oxy)thieno[3,2-b]pyridine] | 25 to 50
18 | O=C(Cn1cccn1)N1CCC(Oc2ccnc3ccsc23)CC1 [Ref. example 81, 2-(1H-pyrazol-1-yl)-1-(4-(thieno[3,2-b]pyridin-7-yloxy)piperidin-1-yl)ethan-1-one] | 50 to 75
19 | O=C(Cn1nccn1)N1CCC(Oc2ccnc3ccsc23)CC1 [Ref. example 82, 1-(4-(thieno[3,2-b]pyridin-7-yloxy)piperidin-1-yl)-2-(2H-1,2,3-triazol-2-yl)ethan-1-one] | 50 to 75
20 | C=CCn1oc(CN2CCC(Oc3ccnc4ccsc34)CC2)cc1=O [Ref. example 84, 2-allyl-5-((4-(thieno[3,2-b]pyridin-7-yloxy)piperidin-1-yl)methyl)isoxazol-3(2H)-one] | 25 to 50
21 | Cc1cc2nccc(OC3CCN(Cc4cc(O)no4)CC3)c2s1 [Ref. example 87, 5-((4-((2-methylthieno[3,2-b]pyridin-7-yl)oxy)piperidin-1-yl)methyl)isoxazol-3-ol] | 25 to 50
22 | Cc1cc2nccc(OC3CCN(C(C)c4cc(O)no4)CC3)c2s1 (centres unmarked) [Ref. example 88, 5-(1-(4-((2-methylthieno[3,2-b]pyridin-7-yl)oxy)piperidin-1-yl)ethyl)isoxazol-3-ol] | 25 to 50

same assay, conditions: second symbol of cell; read-out: IRAK-M binding inhibition IC50 value

Row | SMILES | IC50 [nM]
23 | C=CCOc1cc(CN2CCC(Oc3ccnc4ccsc34)CC2)n(C)n1 [Ref. example 69, 7-((1-((3-(allyloxy)-1-methyl-1H-pyrazol-5-yl)methyl)piperidin-4-yl)oxy)thieno[3,2-b]pyridine] | 100 to 300
24 | C=CCOc1cc(CN2CCC(Oc3ncnc4ccsc34)CC2)on1 [Ref. example 70, 3-(allyloxy)-5-((4-(thieno[3,2-d]pyrimidin-4-yloxy)piperidin-1-yl)methyl)isoxazole] | 100 to 300
25 | C#CCOc1cc(CN2CCC(Oc3ccnc4ccsc34)CC2)on1 [Ref. example 71, 3-(prop-2-yn-1-yloxy)-5-((4-(thieno[3,2-b]pyridin-7-yloxy)piperidin-1-yl)methyl)isoxazole] | 30 to 100
26 | C=CCOc1cc(CN2CCC(Oc3ccnc4cc(C)sc34)CC2)on1 [Ref. example 72, 3-(allyloxy)-5-((4-((2-methylthieno[3,2-b]pyridin-7-yl)oxy)piperidin-1-yl)methyl)isoxazole] | 30 to 100
27 | C=CCOc1cc(C(C)N2CCC(Oc3ccnc4ccsc34)CC2)on1 (centres unmarked) [Ref. example 83, 3-(allyloxy)-5-(1-(4-(thieno[3,2-b]pyridin-7-yloxy)piperidin-1-yl)ethyl)isoxazole] | < 30
28 | COCCOc1cc(CN2CCC(Oc3ccnc4ccsc34)CC2)on1 [Ref. example 85, 3-(2-methoxyethoxy)-5-((4-(thieno[3,2-b]pyridin-7-yloxy)piperidin-1-yl)methyl)isoxazole] | 100 to 300
29 | C=CCOc1cc(CN2CCC(Oc3ccnc4cc(C#N)sc34)CC2)on1 [Ref. example 86, 7-((1-((3-(allyloxy)isoxazol-5-yl)methyl)piperidin-4-yl)oxy)thieno[3,2-b]pyridine-2-carbonitrile] | 100 to 300
